Data: patent US20120270875A1, “PYRIMIDINE AMIDE COMPOUNDS” (priority 2011, published 2012)

Key:
sLFA-1/ICAM-1 = sLFA-1/ICAM-1 (Homo sapiens, UniProt P05107+P20701, DEL701-769); test: sLFA-1/ICAM-1 ELISA; format: binding; details: sLFA-1 coated plates, 5dICAM-Fc binding, ELISA; read-out: LFA-1/ICAM (IC50)
Procedure: (§1) sLFA-1/ICAM-1 ELISA and Mac-1/ICAM-1 ELISA
(§2) Plates were coated with either 50 μl/well of 2.0 ug/ml solution of sLFA-1 or Mac-1 receptor in divalent cation buffer (1 mM MnCl2, 0.14M NaCl, 20 mM HEPES pH 7.2) at 4° C. overnight. Two hundred fifty μl of blocking buffer (1% BSA in divalent cation buffer) was added to each well 1 hour at 37° C. Plates were washed 3 times with wash buffer (TBS/0.05% Tween-20/1 mM MnCl2). The compound to be tested was solubilized in DMSO. A series of 1:3 dilutions were performed to achieve a concentration range of 0.45 nM-3 uM. Fifty μl of binding buffer (0.5% BSA in divalent cation buffer)/1% DMSO and 50 μl of the solutions to be tested were added to the appropriate wells and incubated for 1 hour. Fifty μl of 5dICAM-Fc (27 ng/ml) was added to the appropriate wells and 50 μl binding buffer was added to non-specific binding wells and incubated for 2 hours and washed. One hundred μl of 1:4000 HRP-goat anti-huIgG was added to each well and incubated for 1 hour and washed. One hundred μl of 1:1 TMB solution was added to each well and developed for 20 min at room temperature. Color development was stopped by adding 100 μl H3PO4 to each well. Absorbance was measured at 450 nm.

[1] = tested on: PBMC's from two healthy donors; test: Human Mixed Lymphocyte Reaction (hMLR); format: cell-based; details: 3H-thymidine incorporation, read-out: human MLR (IC50)
Procedure: Human Mixed Lymphocyte Reaction (hMLR)
PBMC's were isolated from two healthy donors by Ficoll gradient. Cells were resuspended with 4 mL assay media and counted with a Coulter Counter. Both cell populations were resuspended to 1×10^7/mL. Stimulator cells were irradiated for 2.5 min (2000 RAD) in cesium irradiator. 5×10^5 cells were added to duplicate wells of the plate. Included were quadruplicate wells receiving responder cells alone and stimulator cells alone. The compound to be tested was solubilized in DMSO. A series of 1:3 dilutions were performed to achieve a concentration range of 0.45 nM-3 uM. One hundred μl of the solutions to be tested were added to the cell plate (100 μl of 2% DMSO/media added to control wells). Plates were then incubated for 2.5 days at 37° C. with 5% CO2. Plates were pulsed with 50 μl/well 3H-thymidine at 0.5 uCi/well then incubated for 6 hours at 37° C. with 5% CO2. Cells were harvested using Cell Harvester (TomTec) and counted on TopCount (Perkin Elmer).

Mac-1/ICAM-1 = Mac-1/ICAM-1 (Homo sapiens, UniProt P05107+P11215); test: Mac-1/ICAM-1 ELISA; details: Mac-1 coated plates, 5dICAM-Fc binding
Mac-1/ICAM-1, sequence (P05107 23-769, other chains not shown): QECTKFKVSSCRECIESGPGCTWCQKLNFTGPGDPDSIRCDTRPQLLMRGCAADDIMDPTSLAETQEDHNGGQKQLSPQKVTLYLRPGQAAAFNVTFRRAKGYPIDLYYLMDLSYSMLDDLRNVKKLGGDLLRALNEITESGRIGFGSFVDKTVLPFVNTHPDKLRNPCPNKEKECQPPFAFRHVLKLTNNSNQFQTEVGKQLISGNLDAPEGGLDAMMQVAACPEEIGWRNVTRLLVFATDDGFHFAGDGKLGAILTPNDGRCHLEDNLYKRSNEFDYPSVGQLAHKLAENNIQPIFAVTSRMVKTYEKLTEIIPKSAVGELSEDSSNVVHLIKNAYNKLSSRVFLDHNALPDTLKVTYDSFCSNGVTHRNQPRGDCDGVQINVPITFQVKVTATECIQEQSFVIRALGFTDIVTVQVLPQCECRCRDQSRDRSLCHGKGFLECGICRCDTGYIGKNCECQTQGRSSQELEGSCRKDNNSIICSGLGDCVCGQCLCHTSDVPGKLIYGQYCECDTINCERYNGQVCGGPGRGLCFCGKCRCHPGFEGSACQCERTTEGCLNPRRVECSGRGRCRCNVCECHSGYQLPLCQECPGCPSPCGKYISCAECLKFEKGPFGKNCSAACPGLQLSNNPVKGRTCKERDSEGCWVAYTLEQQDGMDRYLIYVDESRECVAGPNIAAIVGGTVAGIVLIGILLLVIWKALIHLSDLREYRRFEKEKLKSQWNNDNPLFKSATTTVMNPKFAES
Procedure: as §1, §2

sLFA-1/ICAM-1, sequence (P20701 26-1090 limits assumed, stated change not applied): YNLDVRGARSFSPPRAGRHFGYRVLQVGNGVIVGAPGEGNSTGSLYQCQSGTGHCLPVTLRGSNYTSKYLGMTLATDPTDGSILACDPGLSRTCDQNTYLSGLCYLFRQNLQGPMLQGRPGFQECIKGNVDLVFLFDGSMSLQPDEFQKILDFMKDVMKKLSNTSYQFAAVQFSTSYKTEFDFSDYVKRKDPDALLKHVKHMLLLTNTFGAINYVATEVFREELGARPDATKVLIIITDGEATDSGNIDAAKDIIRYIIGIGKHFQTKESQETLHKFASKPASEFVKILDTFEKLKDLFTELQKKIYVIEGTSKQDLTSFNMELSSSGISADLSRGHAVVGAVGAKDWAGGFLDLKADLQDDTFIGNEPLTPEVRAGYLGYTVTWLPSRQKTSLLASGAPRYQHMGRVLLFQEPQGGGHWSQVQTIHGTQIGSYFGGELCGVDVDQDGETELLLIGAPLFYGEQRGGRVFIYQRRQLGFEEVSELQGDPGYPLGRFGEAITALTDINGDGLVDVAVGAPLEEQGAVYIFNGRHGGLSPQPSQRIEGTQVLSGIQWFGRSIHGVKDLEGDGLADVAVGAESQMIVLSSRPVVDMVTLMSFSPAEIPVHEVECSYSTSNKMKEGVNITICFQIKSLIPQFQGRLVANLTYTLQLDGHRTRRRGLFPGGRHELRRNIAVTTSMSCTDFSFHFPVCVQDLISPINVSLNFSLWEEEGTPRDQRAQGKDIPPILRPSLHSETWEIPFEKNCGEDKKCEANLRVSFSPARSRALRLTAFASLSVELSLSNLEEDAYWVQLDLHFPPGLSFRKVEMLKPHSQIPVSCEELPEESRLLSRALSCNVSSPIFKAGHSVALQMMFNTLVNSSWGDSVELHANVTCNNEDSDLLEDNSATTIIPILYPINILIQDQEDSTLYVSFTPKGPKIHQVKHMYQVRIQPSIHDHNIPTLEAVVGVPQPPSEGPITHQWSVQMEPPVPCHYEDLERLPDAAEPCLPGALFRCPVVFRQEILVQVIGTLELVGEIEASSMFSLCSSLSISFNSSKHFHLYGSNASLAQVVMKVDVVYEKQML
sLFA-1/ICAM-1, sequence (P05107 23-700 limits assumed, stated change not applied): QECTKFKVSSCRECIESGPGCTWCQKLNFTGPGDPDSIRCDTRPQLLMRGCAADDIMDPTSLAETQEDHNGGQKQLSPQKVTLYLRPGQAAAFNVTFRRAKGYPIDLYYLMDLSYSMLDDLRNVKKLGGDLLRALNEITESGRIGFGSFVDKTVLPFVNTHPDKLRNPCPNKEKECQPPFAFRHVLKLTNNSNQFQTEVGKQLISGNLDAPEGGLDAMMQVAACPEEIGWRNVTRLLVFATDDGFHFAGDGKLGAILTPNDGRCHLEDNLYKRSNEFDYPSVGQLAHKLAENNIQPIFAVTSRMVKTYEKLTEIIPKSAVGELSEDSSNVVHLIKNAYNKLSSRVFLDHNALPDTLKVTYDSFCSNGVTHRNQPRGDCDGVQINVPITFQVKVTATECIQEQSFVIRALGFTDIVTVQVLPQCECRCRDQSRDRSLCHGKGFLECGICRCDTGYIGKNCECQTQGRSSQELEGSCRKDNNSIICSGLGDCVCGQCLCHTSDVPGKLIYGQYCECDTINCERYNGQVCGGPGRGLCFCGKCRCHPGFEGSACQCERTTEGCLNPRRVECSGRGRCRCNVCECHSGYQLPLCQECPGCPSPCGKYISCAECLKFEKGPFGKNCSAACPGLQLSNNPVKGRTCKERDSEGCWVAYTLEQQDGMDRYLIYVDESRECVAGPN

CCc1nc(NCCCc2cccc(O)c2)nc(C)c1C(=O)N[C@@H](CNC(=O)c1cccs1)C(=O)O [Example 78, (S)-2-({4-Ethyl-2-[3-(3-hydroxy-phenyl)-propylamino]-6-methyl-pyrimidine-5-carbonyl}-amino)-3-[(thiophene-2-carbonyl)-amino]-propionic acid]
IC50 (sLFA-1/ICAM-1): 20 nM | IC50 [1]: 766 nM

Cc1nc(NCC#Cc2cccc3[nH]ncc23)nc(C)c1C(=O)N[C@@H](CNC(=O)c1cccs1)C(=O)O [Example 62, (S)-2-({2-[3-(1H-Indazol-4-yl)-prop-2-ynylamino]-4,6-dimethyl-pyrimidine-5-carbonyl}-amino)-3-[(thiophene-2-carbonyl)-amino]-propionic acid]
IC50 (sLFA-1/ICAM-1): 80 nM | IC50 [1]: 3810 nM | IC50 (Mac-1/ICAM-1): 45 nM

Cc1cnc(C(=O)NC[C@H](NC(=O)c2c(C)nc(NCCCc3cccc(O)c3)nc2C)C(=O)O)cn1 [Example 101, (S)-2-({2-[3-(3-Hydroxy-phenyl)-propylamino]-4,6-dimethyl-pyrimidine-5-carbonyl}-amino)-3-[(5-methyl-pyrazine-2-carbonyl)-amino]-propionic acid]
IC50 (sLFA-1/ICAM-1): 52 nM | IC50 [1]: 6340 nM

Cc1nc(NCCCc2ccc3cn[nH]c3c2)nc(C)c1C(=O)N[C@@H](CNC(=O)c1cccs1)C(=O)O [Example 63, (S)-2-({2-[3-(1H-Indazol-6-yl)-propylamino]-4,6-dimethyl-pyrimidine-5-carbonyl}-amino)-3-[(thiophene-2-carbonyl)-amino]-propionic acid]
IC50 (sLFA-1/ICAM-1): 323 nM | IC50 (Mac-1/ICAM-1): 670 nM

Cc1nc(NCCCc2cc(O)cc(F)c2)nc(C)c1C(=O)N[C@@H](CNC(=O)c1cccs1)C(=O)O [Example 64, (S)-2-({2-[3-(3-Fluoro-5-hydroxy-phenyl)-propylamino]-4,6-dimethyl-pyrimidine-5-carbonyl}-amino)-3-[(thiophene-2-carbonyl)-amino]-propionic acid]
IC50 (sLFA-1/ICAM-1): 35 nM | IC50 [1]: 1350 nM | IC50 (Mac-1/ICAM-1): 23 nM

Cc1ccc(C(=O)NC[C@H](NC(=O)c2c(C)nc(NCCCc3cccc(O)c3)nc2C)C(=O)O)s1 [Example 87, (S)-2-({2-[3-(3-hydroxy-phenyl)-propylamino]-4,6-dimethyl-pyrimidine-5-carbonyl}-amino)-3-[(5-methyl-thiophene-2-carbonyl)-amino]-propionic acid]
IC50 (sLFA-1/ICAM-1): 4 nM | IC50 [1]: 1430 nM

Cc1nc(NCC#Cc2cccc(O)c2)nc(C)c1C(=O)N[C@@H](CNC(=O)c1cccs1)C(=O)O [Example 61, (S)-2-({2-[3-(3-Hydroxy-phenyl)-prop-2-ynylamino]-4,6-dimethyl-pyrimidine-5-carbonyl}-amino)-3-[(thiophene-2-carbonyl)-amino]-propionic acid]
IC50 (sLFA-1/ICAM-1): 41 nM | IC50 [1]: 1180 nM | IC50 (Mac-1/ICAM-1): 55 nM

Cc1nc(NC/C=C\c2cccc(O)c2)nc(C)c1C(=O)N[C@@H](CNC(=O)c1cccs1)C(=O)O [Example 73, (S)-2-({2-[(Z)-3-(3-Hydroxy-phenyl)-allylamino]-4,6-dimethyl-pyrimidine-5-carbonyl}-amino)-3-[(thiophene-2-carbonyl)-amino]-propionic acid]
IC50 (sLFA-1/ICAM-1): 56 nM | IC50 [1]: 809 nM

Cc1nc(NC/C=C/c2cccc(O)c2)nc(C)c1C(=O)N[C@@H](CNC(=O)c1cccs1)C(=O)O [Example 74, (S)-2-({2-[(E)-3-(3-Hydroxy-phenyl)-allylamino]-4,6-dimethyl-pyrimidine-5-carbonyl}-amino)-3-[(thiophene-2-carbonyl)-amino]-propionic acid]
IC50 (sLFA-1/ICAM-1): 152 nM | IC50 [1]: 2060 nM

CC(=O)NC[C@H](NC(=O)c1c(C)nc(NCCCc2cccc3[nH]ncc23)nc1C)C(=O)O [Example 4, (S)-3-acetylamino-2-({2-[3-(1H-indazol-4-yl)-propylamino]-4,6-dimethyl-pyrimidine-5-carbonyl}-amino)-propionic acid]
IC50 (sLFA-1/ICAM-1): 120 nM | IC50 [1]: 10000 nM

Cc1nc(NCCCc2cccc3[nH]ncc23)nc(C)c1C(=O)N[C@@H](CNC(=O)c1cccs1)C(=O)O [Example 6, (S)-2-({2-[3-(1H-indazol-4-yl)-propylamino]-4,6-dimethyl-pyrimidine-5-carbonyl}-amino)3-[(thiophene-2-carbonyl)-amino]-propionic acid]
IC50 (sLFA-1/ICAM-1): 21 nM | IC50 [1]: 374 nM | IC50 (Mac-1/ICAM-1): 20 nM

Cc1nc(NCCCc2cccc(O)c2)nc(C)c1C(=O)N[C@@H](CNC(=O)OCc1ccccc1)C(=O)O [Example 111, (S)-3-Benzyloxycarbonylamino-2-({2-[3-(3-Hydroxy-phenyl)-propylamino]-4,6-dimethyl-pyrimidine-5-carbonyl}-amino)-propionic acid]
IC50 (sLFA-1/ICAM-1): 56 nM | IC50 [1]: 4880 nM

Cc1nc(NCCCc2cccc(O)c2)nc(C)c1C(=O)N[C@@H](CNC(=O)N(C)C)C(=O)O [Example 113, (S)-3-(3,3-Dimethyl-ureido)-2-({2-[3-(3-Hydroxy-phenyl)-propylamino]-4,6-dimethyl-pyrimidine-5-carbonyl}-amino)-propionic acid]
IC50 (sLFA-1/ICAM-1): 74 nM | IC50 [1]: 4180 nM

Cc1nc(NC2CCc3cccc(O)c3C2)nc(C)c1C(=O)N[C@@H](CNC(=O)c1cnccn1)C(=O)O (stereo partly drawn) [Example 117, (S)-2-{[2-(8-Hydroxy-1,2,3,4-tetrahydro-naphthalen-2-ylamino)-4,6-dimethyl-pyrimidine-5-carbonyl]-amino}-3-[(pyrazine-2-carbonyl)-amino]-propionic acid]
IC50 (sLFA-1/ICAM-1): 175 nM | IC50 [1]: 5110 nM

Cc1nc(NCCCc2cccc(O)c2)nc(C)c1C(=O)N[C@@H](CNC(=O)c1cccs1)C(=O)O [Example 8, (S)-2-({2-[3-(3-hydroxy-phenyl)-propylamino]-4,6-dimethyl-pyrimidine-5-carbonyl}-amino)3-[(thiophene-2-carbonyl)-amino]-propionic acid]
IC50 (sLFA-1/ICAM-1): 40 nM | IC50 [1]: 678 nM | IC50 (Mac-1/ICAM-1): 120 nM

Cc1nc(NCCCc2cccc(O)c2)ncc1C(=O)N[C@@H](CNC(=O)c1cccs1)C(=O)O [Example 76, (S)-2-({2-[3-(3-Hydroxy-phenyl)-propylamino]-4-methyl-pyrimidine-5-carbonyl}-amino)-3-[(thiophene-2-carbonyl)-amino]-propionic acid]
IC50 (sLFA-1/ICAM-1): 9 nM | IC50 [1]: 1760 nM

Cc1nc(NCCCc2cccc(O)c2)nc(C)c1C(=O)N[C@@H](CNC(=O)c1cnccn1)C(=O)O [Example 93, (S)-2-({2-[3-(3-hydroxy-phenyl)-propylamino]-4,6-dimethyl-pyrimidine-5-carbonyl}-amino)-3-[(pyrazine-2-carbonyl)-amino]-propionic acid]
IC50 (sLFA-1/ICAM-1): 29 nM | IC50 [1]: 2300 nM

Cc1nc(NCCCc2cccc(O)c2)nc(C)c1C(=O)N[C@@H](CNC(=O)c1cscn1)C(=O)O [Example 46, (S)-2-({2-[3-(3-hydroxy-phenyl)-propylamino]-4,6-dimethyl-pyrimidine-5-carbonyl}-amino)-3-[(thiazole-4-carbonyl)-amino]-propionic acid]
IC50 (sLFA-1/ICAM-1): 26 nM | IC50 [1]: 753 nM

COC(=O)NC[C@H](NC(=O)c1c(C)nc(NCCCc2cccc(O)c2)nc1C)C(=O)O [Example 109, (S)-2-({2-[3-(3-Hydroxy-phenyl)-propylamino]-4,6-dimethyl-pyrimidine-5-carbonyl}-amino)-3-methoxycarbonylamino-propionic acid]
IC50 (sLFA-1/ICAM-1): 198 nM
